According to US20200207782A1, “CHEMICALLY ACTIVATED WATER-SOLUBLE PRODRUG” (SUMITOMO DAINIPPON PHARMA CO., LTD, priority 2017, published 2020):
Structures can show the parent of a compound that is named as a salt.

What was measured:
[1] = Solution stability test (residual ratio and generation of active form in buffers of pH 2.0 to 9.0); type: physicochemical; parameters: Rate of generation of active form after 24 hours in buffer with pH of 7.4: tested at 25 µM; settings: for Residual ratio: 25 umol/L
Method: The test compounds were incubated at 25° C. at a concentration of 25 umol/L in a buffer prepared to have a pH of 2.0, 3.0, 5.0, 7.4, and 9.0. The compounds were measured by HPLC after 0, 3, 6, 9, 12, and 24 hours.
The buffers used at each pH are the following. • pH 2.0: 50 mmol/L glycine buffer • pH 3.0: 50 mmol/L citrate buffer • pH 5.0: 50 mmol/L citrate buffer • pH 7.4: 50 mmol/L phosphate buffer • pH 9.0: 50 mmol/L glycine buffer
The measurement conditions for HPLC are the following.
The yield of the Example and Reference Example compounds and active forms is calculated with each of the peak area of the Example and Reference Example compounds at 0 minutes and the peak area upon dissolution of the corresponding active form at 100 umol/L as 100%. The yield is denoted in terms of %

[2] = Pharmacokinetics test, plasma concentration after intravenous administration; type: in vivo, CD1 (ICR) mice; settings: mice
Method: The concentration of the active form (2-acetylthieno[3,2-f][1]benzofuran-4,8-dione) in plasma was measured for the water-soluble prodrug described in Example 1. The animal species, dosing method, preparation method of a standard solution, and the plasma concentration measurement method are the following.
Animals: 7-week old male CD1 (ICR) mice were used as the experimental animals.
Dosing method: the test sample was weighed and then dissolved in a 50 mmol/L glycine buffered saline (pH 2.0) as the administered solution. The body weight of mice was measured, and the prepared solution was intravenously administered.
Blood collection method: heparin was added to a blood collection tube, and blood was collected from mice. 1% quantity of 46% citric acid was added to the obtained blood, which was centrifuged to give the plasma. 10% quantity of 1 mol/L HCl was added to the collected plasma as the plasma sample. 10% quantity of 1 mol/L HCl added to blank plasma was used as the blank sample. […]
Plasma concentration measurement: 100 ug/mL of standard solution was diluted with an acetonitrile solution to prepare a calibration curve sample with a concentration of interest. […] 180 uL of internal standard containing acetonitrile (containing 1% quantity of 10 mol/L HCl) was added to each of the plasma calibration curve sample and sample for plasma analysis. […]

[3] = Evaluation of conversion rate to active form in CD1 mouse plasma; type: in vitro ADME; settings: CD1 mouse plasma; for Test compound remaining (% of 0 min peak area): 37° C., 10 umol/L
Method: (§1) The ratio of decrease of a test compound and the conversion ratio to a corresponding active form (2-acetylthieno[3,2-f][1]benzofuran-4,8-dione) in human plasma and CD1 mouse plasma were measured for Example 1.
(§2) The test compounds were incubated at 37° C. at a concentration of 10 umol/L in human plasma (cat. no. 12250210, Cosmo Bio) and CD1 mouse plasma (cat. no. AP3054, KAC) and retrieved for a given time (0, 5, 10, 30, 60, and 120 minutes) and deproteinized, then analyzed by LC-MS. Acetonitrile comprising each of 10% quantity of 1 mol/L hydrochloric acid, 1% quantity of 46% citric acid, and phenytoin as an internal standard was used for deproteinization.
(§3) LC-MS measurement conditions were the following.
(§4) The yield of the Examples compounds and active form 2-acetylthieno[3,2-f][1]benzofuran-4,8-dione is calculated with each of the peak area of the Example compounds at 0 minutes and the peak area upon dissolution of 2-acetylthieno[3,2-f][1]benzofuran-4,8-dione at 100 umol/L as 100%. The yield is denoted in terms of %.
(§5) In the same manner as Example 1, the conversion ratio to an active form was measured for each of the various test compounds in human plasma and CD1 mouse plasma, with incubation time as 120 minutes. It was confirmed that the series of compounds of the invention was converted to an active form with a small interspecies difference in human plasma and CD1 mouse plasma.
(§6) The yield of the active forms is calculated with the each peak area upon dissolution of the generated active form at 100 umol/L as 100%. The yield is denoted in terms of %.

[4] = Evaluation of conversion rate to active form in human plasma; type: in vitro ADME; settings: for Measurement value % of test compound (ratio of decrease): 37° C., 10 umol/L
Method: as §1, §2, §3, §4, §5, §6

[5] = physchem; settings: pH 2, aqueous buffer, thermodynamic from solid
Method: The solubility of the water-soluble prodrugs described in the Examples and the Reference Examples was measured. […] The filtrate was measured by HPLC.

CC(=O)c1cc2c(OC(=O)NCCNCC(=O)O)c3ccsc3c(OC(=O)NCCNCC(=O)O)c2o1 [Example 1, 2,2′-[(2-Acetylthieno[3,2-f][1]benzofuran-4,8-diyl)bis(oxycarbonyliminoethane-2,1-diylimino)]diacetic acid dihydrochloride]
Residual ratio ([1]; pH2.0 buffer, 25° C., 0 hr): 100% | Residual ratio ([1]; pH2.0 buffer, 25° C., 3 hr): 100% | Residual ratio ([1]; pH2.0 buffer, 25° C., 6 hr): 103% | Residual ratio ([1]; pH2.0 buffer, 25° C., 9 hr): 102% | Residual ratio ([1]; pH2.0 buffer, 25° C., 12 hr): 102% | Residual ratio ([1]; pH2.0 buffer, 25° C., 24 hr): 98.6% | Degradation behaviour in buffers (in words) ([1]; pH 2.0 to 9.0): pH dependent and chemical degradation progressed | Residual ratio ([1]; pH3.0 buffer, 25° C., 0 hr): 99.9% | Residual ratio ([1]; pH3.0 buffer, 25° C., 3 hr): 97.6% | Residual ratio ([1]; pH3.0 buffer, 25° C., 6 hr): 95.3% | Residual ratio ([1]; pH3.0 buffer, 25° C., 9 hr): 95.6% | Residual ratio ([1]; pH3.0 buffer, 25° C., 12 hr): 90.9% | Residual ratio ([1]; pH3.0 buffer, 25° C., 24 hr): 86.9% | Residual ratio ([1]; pH5.0 buffer, 25° C., 0 hr): 85.1% | Residual ratio ([1]; pH5.0 buffer, 25° C., 3 hr): 6.6% | Residual ratio ([1]; pH5.0 buffer, 25° C., 6 hr): 3.9% | Residual ratio ([1]; pH5.0 buffer, 25° C., 9 hr, dihydrochloride): 0% | Residual ratio ([1]; pH5.0 buffer, 25° C., 12 hr): 0.0% | Residual ratio ([1]; pH5.0 buffer, 25° C., 24 hr): 0.0% | Residual ratio ([1]; pH7.4 buffer, 25° C., 0 hr, dihydrochloride): 0% | Residual ratio ([1]; pH7.4 buffer, 25° C., 3 hr): 0.0% | Residual ratio ([1]; pH7.4 buffer, 25° C., 6 hr): 0.0% | Residual ratio ([1]; pH7.4 buffer, 25° C., 9 hr): 0.0% | Residual ratio ([1]; pH7.4 buffer, 25° C., 12 hr): 0.0% | Residual ratio ([1]; pH7.4 buffer, 25° C., 24 hr): 0.0% | Rate of generation of active form after 24 hours in buffer with pH of 7.4 ([1]; pH 7.4 buffer, 24 hours, 25° C.): 92% | Residual ratio ([1]; pH9.0 buffer, 25° C., 0 hr, dihydrochloride): 0% | Residual ratio ([1]; pH9.0 buffer, 25° C., 3 hr): 0.0% | Residual ratio ([1]; pH9.0 buffer, 25° C., 6 hr): 0.0% | Residual ratio ([1]; pH9.0 buffer, 25° C., 9 hr): 0.0% | Residual ratio ([1]; pH9.0 buffer, 25° C., 12 hr): 0.0% | Residual ratio ([1]; pH9.0 buffer, 25° C., 24 hr): 0.0% | Stability in solution (in words) ([1]; pH of 2.0, 25° C.): very stable | Stability in solution (in words) ([1]; pH of 3.0, 25° C.): sufficiently stable | Generation of active form after intravenous administration (in words) [2]: quickly generated | Degradation in plasma (in words) [3]: quickly progressed | Test compound remaining (% of 0 min peak area) ([3]; 0 minutes): 100% | Test compound remaining (% of 0 min peak area) ([3]; 5 minutes): 0.11% | Test compound remaining (% of 0 min peak area) ([3]; 10 minutes): 0.01% | Test compound remaining (% of 0 min peak area) ([3]; 30 minutes): 0.01% | Test compound remaining (% of 0 min peak area) ([3]; 60 minutes): 0.01% | Test compound remaining (% of 0 min peak area) ([3]; 120 minutes): 0.08% | Degradation in plasma (in words) ([4]; human plasma): quickly progressed | Interspecies difference of conversion to active form (in words) ([4]; human plasma versus CD1 mouse plasma): interspecies difference was small | Measurement value % of test compound (ratio of decrease) ([4]; human plasma, 0 minutes): 100% | Measurement value % of test compound (ratio of decrease) ([4]; human plasma, 5 minutes): 0.0% | Measurement value % of test compound (ratio of decrease) ([4]; human plasma, 10 minutes): 0.0% | Measurement value % of test compound (ratio of decrease) ([4]; human plasma, 30 minutes): 0.0% | Measurement value % of test compound (ratio of decrease) ([4]; human plasma, 60 minutes): 0.0% | Measurement value % of test compound (ratio of decrease) ([4]; human plasma, 120 minutes): 0.0% | solubility at 24 h [5]: > 10000 µg/mL
